Paper PMC11006142, “A divergent protein kinase A regulatory subunit essential for morphogenesis of the human pathogen Leishmania” (PLOS Pathogens, 2024)

How the values were obtained:
[1] = target: T1, PKAR3 (protein kinase A regulatory subunit 3) (Leishmania donovani, UniProt A0A3S7X836); assay: isothermal titration calorimetry (ITC), one-site model; assay type: binding
T1 construct: gene LdCL_340034800

[2] = target: subpellicular microtubules (SPMT) of L. donovani promastigotes, detected as β-tubulin (L. donovani (endogenous in promastigotes)); assay: FRET or BRET; fixed L. donovani promastigotes labelled with primary antibodies and secondary antibodies with Alexa Fluor 568 (donor) and 647 (acceptor); corrected acceptor FRET (Youvan), confocal microscopy

T1 sequence (A0A3S7X836 entry or part of it): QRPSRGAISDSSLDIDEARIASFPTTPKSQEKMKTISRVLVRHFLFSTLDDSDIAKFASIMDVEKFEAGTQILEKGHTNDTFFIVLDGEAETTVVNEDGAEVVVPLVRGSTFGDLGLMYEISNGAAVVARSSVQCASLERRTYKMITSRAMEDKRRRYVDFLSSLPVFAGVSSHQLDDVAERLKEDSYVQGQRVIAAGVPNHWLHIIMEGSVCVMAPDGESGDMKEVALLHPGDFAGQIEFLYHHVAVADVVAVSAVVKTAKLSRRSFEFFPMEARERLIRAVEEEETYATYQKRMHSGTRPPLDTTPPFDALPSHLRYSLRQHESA

| Molecule | Kd [1] [nM] | decrease of FRET-positive pixels per cell against PKAR3FL [2] [%] |
| --- | --- | --- |
| N#Cc1cn([C@@H]2O[C@H](CO)[C@@H](O)[C@H]2O)c2ncnc(O)c12 [7-CN-7-C-Ino, 7-cyano-7-deaza-inosine] | 1 | – |
| L. donovani PKAR3 lacking the N-terminal 90 amino acids (domain or fragment) | – | 30 |
| N#Cc1cn([C@@H]2O[C@H](CO)[C@@H](O)[C@H]2O)c2ncnc(N)c12 [Toyo, Toyocamycin] | 3.8 | – |
